# Patent US20050255537A1, “Method for monitoring treatment with a parathyroid hormone” (priority 1999, published 2005)
# How the values were obtained:
# [1] = Post-hoc estimates of AUC from the pharmacokinetic model (systemic exposure); conditions: human, in vivo, subcutaneous
# Excerpt: (§1) In order to explore the relationship between concentration and the effect on spine BMD, a pharmacokinetic/pharmacodynamic model was developed. This relationship was best described by a sigmoid Emax model with AUC50 estimated at 170 pg·hr/mL.
# [2] = system: postmenopausal osteoporotic women; conditions: GHAC efficacy trial, disclosed in PCT/US99/18961; cited from earlier work
# postmenopausal women [3] = assay: Pharmacokinetic/pharmacodynamic sigmoid Emax models (spine BMD, femoral neck BMD, PICP); assay type: in vivo, human
# Excerpt: as §1
# A pharmacokinetic/pharmacodynamic model was also developed for femoral neck BMD. The relationship was best described by a sigmoid Emax model with AUC50 estimated at 283 pg·hr/mL. […] Thus, the final pharmacodynamic model which included treatment group rather than systemic exposure, predicted the increase in hip BMD in a patient of average age (˜69 years), body weight (˜66 kg), and baseline NTX concentration (˜48 mmBCE/L) to be approximately 2.8% and 5.2% after 21 months of 20 μg/day and 40 μg/day therapy, respectively.
# A pharmacokinetic/pharmacodynamic model was developed for the PICP response. […] Thus, LY333334 exposure was a less significant predictor of elevation in PICP concentrations than administered dose.
# postmenopausal women [4] = assay: Example 4 population pharmacodynamic models of total lumbar spine and femoral neck BMD; assay type: in vivo, human
# Excerpt: Data from the studies described in Examples 1-3 above were further analyzed to develop more detailed models for the use of bone markers in monitoring and predicting effects of PTH on clinically significant correlates of efficacy in the treatment of osteoporosis, such as bone mineral density (BMD). Population pharmacodynamic (PD) models were developed to describe total lumbar spine and femoral neck bone mineral density (BMD) responses in ˜1500 postmenopausal women enrolled in a phase 3 study of LY333334 [rhPTH(1-34)]. Serum LY333334 (LY), procollagen 1 carboxy-terminal propeptide (PICP) and bone specific alkaline phosphatase (B SAP) concentrations, and urinary excretion of N-telopeptide (NTX) and free deoxypyridinoline (DPD) were also measured in a subset of ˜350 patients. LY dose, average steady-state LY concentration, and early changes in markers of bone turnover were each evaluated for their ability to predict subsequent changes in BMD. […] Response was greatest in patients with increased fracture risk (i.e., older women with low BMD, low body weight, and high bone turnover at baseline). In the subset analysis, PICP was the strongest indicator of BMD response; an increase >101 pM after 1 month of therapy was always associated with a gain in spine BMD. NTX was also a better predictor of increase in BMD than LY dose, but dose predicted BMD response better than LY, BSAP or DPD concentrations (p<0.001).
# Population pharmacodynamic models were developed individually for total lumber spine BMD, femoral neck BMD, procollagen 1 carboxy-terminal propeptide (PICP), bone specific alkaline phosphate (BSAP), urinary N-telopeptide (NTX), and urinary free deoxypyridinoline (DPD). These treatment-response models characterized change in the pharmacodynamic endpoints and identified significant patient factors influencing response to therapy.
# The final treatment-response models for total lumbar spine and femoral neck BMD were used to calculate BMD values after 21 months of treatment for each patient, based on the individual's parameter estimates (empirical Bayesian estimates). Similarly, the final treatment-response models for each biochemical maker (PICP, BSAP, NTX, and DPD) were used to calculate concentration values after 1 month of treatment for each patient. These predicted BMD measurements were merged with the predicted biochemical marker concentrations for patients who completed at least 12 months of LY333334 therapy.
# Biochemical marker response-indicator models were developed to characterize the relationship between the biochemical marker concentrations at 1 month and response to therapy, as measured by change in total lumbar spine and femoral neck BMD.
# Population pharmacodynamic analyses were undertaken to evaluate the time course of the relationships between efficacy measures and LY333334 dose or LY333334 concentrations. […] As a part of this assessment, a population placebo-response model describing the change in BMD in patients randomly assigned to placebo (supplemented with calcium and vitamin D) was first developed. Patient-specific factors that explained some of the variability of that model were identified and included in the model. A pharmacodynamic model describing the therapeutic response was then developed for patients randomly assigned to LY333334 treatment using the placebo-response model as the baseline function. Thus, the progression of bone loss that occurs in osteoporosis patients receiving only calcium and vitamin D supplementation was separated from the effects of LY333334 treatment.
# [5] = system: serum PICP, serum BSAP, urinary NTX, urinary free deoxypyridinoline; assay: Example 5 study GHAJ: biochemical markers of bone formation and resorption in men; assay type: in vivo, human; conditions: for serum PICP peak concentration above baseline: Month 1
# Protocol: Four hundred thirty seven men with primary osteoporosis were enrolled in the study. Approximately one-third of die patients were randomly assigned to LY333334 40 μg/day plus calcium and vitamin D, one-third of the patients were randomly assigned to LY333334 20 μg/day plus calcium and vitamin D, and one-third of the patients were randomly assigned to placebo plus calcium and vitamin D. • Number of Subjects: • PTH: Male 437, Female 0, Total 437; • LY333334 20 μg: Male: Total 151. • LY333334 40 μg: Male: Total 139. • Placebo: Male: Total 147. • Diagnosis and Inclusion Criteria: The study patients were men with primary osteoporosis, aged 30 to 85 years, inclusive. L-2 to L-4 vertebrae must have been intact without artifacts, crush fracture or other abnormalities which would have interfered with the analysis of the posterior-anterior lumbar spine bone mineral density (BMD) measurement which must have been at least 2.0 SD below that of young, healthy men. […] Patient Demographic and Other Baseline Characteristics
# [6] = 21 months, 20 and 40 μg groups together
smiles,measurement,setting,value
CC[C@H](C)[C@H](NC(=O)[C@H](CCC(=O)O)NC(=O)[C@H](CO)NC(=O)[C@@H](NC(=O)[C@@H](N)CO)C(C)C)C(=O)N[C@@H](CCC(N)=O)C(=O)N[C@@H](CC(C)C)C(=O)N[C@@H](CCSC)C(=O)N[C@@H](Cc1cnc[nH]1)C(=O)N[C@@H](CC(N)=O)C(=O)N[C@@H](CC(C)C)C(=O)NCC(=O)N[C@@H](CCCCN)C(=O)N[C@@H](Cc1cnc[nH]1)C(=O)N[C@@H](CC(C)C)C(=O)N[C@@H](CC(N)=O)C(=O)N[C@@H](CO)C(=O)N[C@@H](CCSC)C(=O)N[C@@H](CCC(=O)O)C(=O)N[C@@H](CCCN=C(N)N)C(=O)N[C@H](C(=O)N[C@@H](CCC(=O)O)C(=O)N[C@@H](Cc1c[nH]c2ccccc12)C(=O)N[C@@H](CC(C)C)C(=O)N[C@@H](CCCN=C(N)N)C(=O)N[C@@H](CCCCN)C(=O)N[C@@H](CCCCN)C(=O)N[C@@H](CC(C)C)C(=O)N[C@@H](CCC(N)=O)C(=O)N[C@@H](CC(=O)O)C(=O)N[C@H](C(=O)N[C@@H](Cc1cnc[nH]1)C(=O)N[C@@H](CC(N)=O)C(=O)N[C@@H](Cc1ccccc1)C(=O)O)C(C)C)C(C)C [LY333334],AUC,[1]; 20 ug,0.365 ng·h/mL
same,AUC,[1]; 40 ug,0.576 ng·h/mL
same,incidence of new vertebral and non-vertebral fractures compared to placebo,[2],reduced the incidence of new vertebral fractures and non-vertebral fractures
same,increase in PICP concentration at 1 month as % of the maximum effect,postmenopausal women [3]; 20 μg dose,70%
same,increase in femoral neck BMD as % of the maximum effect,postmenopausal women [3]; 20 μg dose,56%
same,increase in spine BMD as % of the maximum effect,postmenopausal women [3]; 20 μg dose,82%
same,increase in PICP concentration at 1 month as % of the maximum effect,postmenopausal women [3]; 40 μg dose,85%
same,increase in femoral neck BMD as % of the maximum effect,postmenopausal women [3]; 40 μg dose,67%
same,increase in spine BMD as % of the maximum effect,postmenopausal women [3]; 40 μg dose,92%
same,"AUC50, sigmoid Emax model for PICP response",postmenopausal women [3]; PICP,239 pg·h/mL
same,"AUC50, sigmoid Emax model for femoral neck BMD",postmenopausal women [3]; femoral neck BMD,283 pg·h/mL
same,"AUC50, sigmoid Emax model for spine BMD",postmenopausal women [3]; spine BMD,170 pg·h/mL
same,final PD model predicted increase in hip (femoral neck) BMD,"postmenopausal women [4]; 40 μg/day, 21 months",~5.2%
same,final PD model predicted increase in total lumbar spine BMD,"postmenopausal women [4]; 40 μg/day, 21 months",~14.6%
same,treatment group model change from mean baseline femoral neck BMD,"postmenopausal women [4]; 20-μg group, 21 months",2.8%
same,treatment group model change from mean baseline spine BMD,"postmenopausal women [4]; 20-μg group, 21 months",10.5%
same,treatment group model predicted change in femoral neck BMD,"postmenopausal women [4]; 20-μg group, 21 months",0.018 g/cm^2
same,treatment group model predicted change in spine BMD,"postmenopausal women [4]; 20-μg group, 21 months",0.086 g/cm^2
same,base model change from mean baseline femoral neck BMD,postmenopausal women [4]; [6],4.2%
same,base model change from mean baseline spine BMD,postmenopausal women [4]; [6],12.6%
same,"base model predicted increase in femoral neck BMD, typical treated patient","postmenopausal women [4]; 21 months, 20 and 40 μg groups together, 272 patients",0.027 g/cm^2
same,"base model predicted increase in spine BMD, typical treated patient","postmenopausal women [4]; 21 months, 20 and 40 μg groups together, 276 patients",0.103 g/cm^2
same,treatment group model change from mean baseline femoral neck BMD,"postmenopausal women [4]; 40-μg group, 21 months",5.3%
same,treatment group model change from mean baseline spine BMD,"postmenopausal women [4]; 40-μg group, 21 months",14.8%
same,treatment group model predicted change in femoral neck BMD,"postmenopausal women [4]; 40-μg group, 21 months",0.034 g/cm^2
same,treatment group model predicted change in spine BMD,"postmenopausal women [4]; 40-μg group, 21 months",0.121 g/cm^2
same,subjects with a negative BMD response (spine BMD<0.00 g/cm^2),"postmenopausal women [4]; from a total of 272, 21 months, FIG. 11",four
same,urinary N-telopeptide and urinary free deoxypyridinoline,[5]; 20-μg and 40-μg doses,Slightly delayed but significant increases
same,serum PICP peak concentration above baseline,[5]; 20-μg group,33.7%
same,increase in serum BSAP concentration from baseline,"[5]; 20-μg group, Month 12",28.8%
same,serum PICP compared with baseline,"[5]; 20-μg group, Month 12",decreased compared with baseline
same,"urinary NTX percent change from baseline, peak","[5]; 20-μg group, Month 12",approximately 57%
same,serum PICP peak concentration above baseline,[5]; 40-μg group,78.0%
same,"urinary NTX percent change from baseline, peak","[5]; 40-μg group, Month 6",approximately 155%
same,increase in serum BSAP concentration from baseline,"[5]; 40-μg group, Month 12",59.3%
same,serum PICP compared with baseline,"[5]; 40-μg group, Month 12",slightly decreased compared with baseline
same,urinary NTX over baseline,"[5]; 40-μg group, Month 12",approximately 118%
same,bone marker levels after discontinuation,[5]; closeout visit,only serum PICP levels had returned to baseline by the closeout visit
